From ChEMBL document CHEMBL3992490, “Synthesis, spectroscopic properties and photodynamic activity of two cationic BODIPY derivatives with application in the photoinactivation of microorganisms” (Eur J Med Chem, 2017)
The source made the active and inactive calls. The calls are words filed in the database; no cut-off is given here.

How the values were obtained:
Staphylococcus aureus [1] = experiment: Antibacterial activity against Staphylococcus aureus ATCC 25923 assessed as reduction in cell survival at 1 uM irradiated with visible light for 5 mins in presence of 10 mM potassium iodide by UV-visible spectroscopic method; format: functional
[2] = In vitro photodynamic activity in DMF assessed as reactive oxygen species production by measuring photo-oxidation rate of L-tryptophan after irradiation by absorption spectra analysis
[3] = In vitro photodynamic activity in DMF/5% water assessed as iodine production at 1 uM irradiated with visible light for 5 to 30 mins under aerobic condition in presence of 10 mM potassium iodide by UV-visible spectra analysis
[4] = In vitro photodynamic activity in DMF assessed as singlet oxygen production by measuring decrease in DPBF level after irradiation by absorption spectra analysis; details: TDE = time-dependent effect
[5] = In vitro photodynamic activity in n-heptane/0.1 M AOT/water micelles assessed as singlet oxygen production by measuring photodegradation rate of DPBF after irradiation by absorption spectra analysis
[6] = Ratio of rate constant for induction of singlet oxygen production in DMF assessed as photodegradation rate of DPBF to rate constant for induction of reactive oxygen species production in DMF assessed as photodegradation rate of L-tryptophan
Candida albicans [7] = experiment: Dark toxicity against Candida albicans PC31 assessed as cell viability at 5 uM measured after 30 mins by UV-visible spectroscopic method; details: 0.5 h
[8] = In vitro photodynamic activity in DMF/5% water assessed as iodine production at 1 uM irradiated with visible light for 5 to 30 mins under argon condition in presence of 10 mM potassium iodide by UV-visible spectra analysis
Escherichia coli [9] = experiment: Dark toxicity against Escherichia coli EC7 assessed as cell viability at 5 uM in presence of 10 mM potassium iodide measured after 30 mins by UV-visible spectroscopic method; details: 0.5 h
Candida albicans [10] = experiment: Dark toxicity against Candida albicans PC31 assessed as cell viability at 5 uM in presence of 10 mM potassium iodide measured after 30 mins by UV-visible spectroscopic method; details: 0.5 h
[11] = In vitro photodynamic activity in DMF/5% water assessed as reactive oxygen species production by measuring photo-oxidation rate of L-tryptophan after irradiation in presence of DABCO by absorption spectra analysis
[12] = In vitro photodynamic activity in DMF/5% water assessed as singlet oxygen production by measuring photo-oxidation rate of DPBF after irradiation by absorption spectra analysis
[13] = In vitro photodynamic activity in DMF assessed as singlet oxygen production by measuring photodegradation rate of DPBF after irradiation by absorption spectra analysis
Escherichia coli [14] = experiment: Dark toxicity against Escherichia coli EC7 assessed as cell viability at 5 uM measured after 30 mins by UV-visible spectroscopic method; details: 0.5 h
Staphylococcus aureus [15] = experiment: Dark toxicity against Staphylococcus aureus ATCC 25923 assessed as cell viability at 1 uM in presence of 10 mM potassium iodide measured after 30 mins by UV-visible spectroscopic method; details: 0.5 h
Candida albicans [16] = experiment: Anti-fungal activity against Candida albicans PC31 assessed as reduction in cell survival at 5 uM irradiated with visible light for 30 mins by UV-visible spectroscopic method; format: functional
Escherichia coli [17] = experiment: Antibacterial activity against Escherichia coli EC7 assessed as reduction in cell survival at 5 uM irradiated with visible light for 15 mins in presence of 10 mM potassium iodide by UV-visible spectroscopic method; format: functional
Staphylococcus aureus [18] = experiment: Dark toxicity against Staphylococcus aureus ATCC 25923 assessed as cell viability at 1 uM measured after 30 mins by UV-visible spectroscopic method; details: 0.5 h
[19] = In vitro photodynamic activity in DMF/10% water assessed as reactive oxygen species production by measuring photo-oxidation rate of L-tryptophan after irradiation in presence of 50 mM potassium iodide by absorption spectra analysis
[20] = In vitro photodynamic activity in DMF/5% water assessed as iodine production at 1 uM under dark condition in presence of 10 mM potassium iodide by UV-visible spectra analysis
Escherichia coli [21] = experiment: Antibacterial activity against Escherichia coli EC7 assessed as reduction in cell survival at 5 uM irradiated with visible light for 15 mins by UV-visible spectroscopic method; format: functional
[22] = In vitro photodynamic activity in DMF/5% water assessed as singlet oxygen production by measuring photo-oxidation rate of DPBF after irradiation in presence of 50 mM potassium iodide by absorption spectra analysis
[23] = In vitro photodynamic activity in DMF/5% water assessed as singlet oxygen production by measuring photo-oxidation rate of DPBF after irradiation in presence of 10 mM potassium iodide by absorption spectra analysis
Staphylococcus aureus [24] = experiment: Antibacterial activity against Staphylococcus aureus ATCC 25923 assessed as reduction in cell survival at 1 uM irradiated with visible light for 5 mins by UV-visible spectroscopic method; format: functional
Candida albicans [25] = experiment: Anti-fungal activity against Candida albicans PC31 assessed as reduction in cell survival at 5 uM irradiated with visible light for 30 mins in presence of 10 mM potassium iodide by UV-visible spectroscopic method; format: functional
[26] = In vitro photodynamic activity in DMF/5% water assessed as reactive oxygen species production by measuring photo-oxidation rate of L-tryptophan after irradiation by absorption spectra analysis
[27] = In vitro photodynamic activity in DMF/10% water assessed as reactive oxygen species production by measuring photo-oxidation rate of L-tryptophan after irradiation by absorption spectra analysis
[28] = In vitro photodynamic activity in DMF/5% water assessed as reactive oxygen species production by measuring photo-oxidation rate of L-tryptophan after irradiation in presence of D-mannitol by absorption spectra analysis

Structure (SMILES)	Activity (Staphylococcus aureus [1])	K [2]	Activity [3]	Activity [4]	K [5]	Ratio [6]	Activity (Candida albicans [7])	Activity [8]	Activity (Escherichia coli [9])	Activity (Candida albicans [10])	K [11]	K [12]	K [13]	Activity (Escherichia coli [14])	Activity (Staphylococcus aureus [15])	Activity (Candida albicans [16])	Activity (Escherichia coli [17])	Activity (Staphylococcus aureus [18])	K [19]	Activity [20]	other results
CC1=CC(C)=[N+]2C1=C(c1ccc([N+](C)(C)C)cc1)c1c(C)cc(C)n1[B-]2(F)F	Active	3.06 ×10⁻⁴ /s	Active	Tde	1.95 ×10⁻⁴ /s	3.2	Non-Toxic	inactive	Non-Toxic	Non-Toxic	2.98 ×10⁻⁵ /s	1.8 ×10⁻⁴ /s	9.51 ×10⁻⁵ /s	Non-Toxic	Non-Toxic	3.7 deltalog10CFU/ml	Active	Non-Toxic	4.42 ×10⁻⁵ /s	inactive	Activity (Escherichia coli [21]): 2.5 deltalog10CFU/ml; K [22]: 1.02 ×10⁻⁴ /s; K [23]: 1.58 ×10⁻⁴ /s; Activity (Staphylococcus aureus [24]): >5 deltalog10CFU/ml; Activity (Candida albicans [25]): Active; K [26]: 4.75 ×10⁻⁵ /s; K [27]: 2.13 ×10⁻⁵ /s; K [28]: 1.41 ×10⁻⁵ /s
C[N+](C)(C)CCCOc1ccc(C2=C3C=CC=[N+]3[B-](F)(F)n3cccc32)cc1	Active	3.44 ×10⁻⁴ /s	Active	Tde	1.25 ×10⁻⁴ /s	8.3	Non-Toxic	inactive	Non-Toxic	Non-Toxic	3 ×10⁻⁵ /s	5.81 ×10⁻⁵ /s	4.15 ×10⁻⁵ /s	Non-Toxic	Non-Toxic	0.9 deltalog10CFU/ml	Active	Non-Toxic	9.55 ×10⁻⁵ /s	inactive	Activity (Escherichia coli [21]): 2.5 deltalog10CFU/ml; K [22]: 0.64 ×10⁻⁵ /s; K [23]: 2.79 ×10⁻⁵ /s; Activity (Staphylococcus aureus [24]): >5 deltalog10CFU/ml; Activity (Candida albicans [25]): Active; K [26]: 7.86 ×10⁻⁵ /s; K [27]: 2.79 ×10⁻⁵ /s; K [28]: 1.56 ×10⁻⁵ /s
